Measurements published in patent US20240108585A1, “COMPOSITIONS COMPRISING LIPID-BASED NANOPARTICLES FOR TREATING DIABETES MELLITUS” (SDG, Inc., priority 2018, published 2024).

Legend:
[1] = system: type 1 diabetes mellitus (T1DM); assay: ISLE-1: 26-week Phase 2b multicenter randomized double-blind non-inferiority trial, HDV-L vs LIS, multiple daily injections
From the text: ISLE-1 was a 26-week, Phase 2b, multicenter, randomized, double-blind, non-inferiority trial.
ISLE-1 was a 26-week, Phase 2b, multicenter, randomized, double-blind, trial in T1DM treated with multiple daily injections (MDI) of insulin.
Main inclusion criteria were: age ≥18 years; T1D for ≥12 months; A1c ≥7.0 ([…]) to ≤10.5% (≤91 mmol/mol); treated with insulins glargine or detemir for basal coverage. Main exclusion criteria were total insulin dose ≥1.5 IU/kg/day or NPH insulin as basal.
Prandial dosing of HDV-lispro or control lispro was 15 minutes prior to the meal, and basal insulins were administered either as a single daily dose or a divided twice per day dosing, every 12 hours.
Informed of −10% dilution, participants continued their current insulin parameters. Hypoglycemia was recorded on Case Report Forms (CRFs) based on subject diaries and SMBG records, subjectively investigator-judged as “mild,” “moderate,” “severe,” or “life threatening.” Blinded continuous glucose monitoring (CGM) (Dexcom G4) was used for 5-7 days to assess glucose at baseline, weeks 13 and 26. A1c, lipids, and liver enzymes were measured approximately monthly. Liver fat content MRIs were performed in a subset.
The intent to treat (ITT) population included all randomized subjects receiving at least one dose of study treatment. Safety analyses included all randomized subjects. […] Mean A1c change was analyzed using ANCOVA within intent-to-treat (ITT) cohort at each visit. Post hoc subgroup analyses (baseline A1c <8.5% vs ≥8.5%) were performed, this cut point corresponding to pre-specified randomization strata. Direct likelihood models were used for treatment arm A1c comparisons, % time <54 mg/dL, bolus insulin, and basal insulin within the two A1c subgroups. Poisson regression models adjusting for site as random effect compared “severe” hypoglycemia incidence rates within A1c groups, testing for baseline A1c by treatment group interaction. Event number/subject was truncated at 15, accounting for extreme outliers.

[2] = system: adult Type 1 diabetes mellitus; assay: Example 3: double-blinded randomized six-week parallel study, HDV lispro vs lispro, multiple daily injections, CGM; assay type: in vivo, human
From the text: A double-blinded, randomized study was run comparing the efficacy of HDV lispro vs. lispro to treat adult Type 1 diabetes mellitus. The study involved 43 (1:1) subjects (who were considered to be in good control, with HbA1c levels between 7-8%) and was a six-week parallel design study, with multiple daily injections. The baseline HbA1c was 7.35 (HDV group) and 7.39 (lispro group). The primary endpoint was a two-hour reduction in glucose time out of range.

[3] = system: adult Type 1 diabetes mellitus; assay: Example 2 pump study: randomized double-blinded two-way crossover, HDV lispro vs lispro by insulin pump, CGM and mixed meal test; assay type: in vivo, human; conditions: baseline HbA1c 7.19; 3-week pump period; 7 subjects
From the text: A study was run comparing the efficacy of HDV lispro vs. lispro to treat adult Type 1 diabetes mellitus when administered by pump. The study involved 7 subjects and was a randomized, double-blinded two-way crossover study. The dosing duration was 3-week on standard insulin x 3-week on HDV-insulin with infusion via standard commercial insulin pumps, and a mixed meal test was employed; continuous glucose monitoring was achieved via blinded Dexcom G4 Platinum Continuous Glucose Monitor. The baseline HbA1c was 7.19, and the ending HbA1c was 7.21 (for the HDV group) and 7.08 (for the lispro group).

insulin lispro
treatment-related serious adverse events ([1]; 26 weeks): No treatment-related serious adverse events were reported
Mean change in A1c baseline to Week 26 ([1]; all subjects, HDV-L n=118, LIS n=58): −0.16%
change in A1c over time ([1]; baseline A1c <8.5%): little change
time <54 mg/dL during Week 26 (median) ([1]; baseline A1c <8.5%, CGM, p=0.16): 0.6%
CRF-reported incidence of "severe" hypoglycemia ([1]; baseline A1c <8.5%, p=0.001, unit not given): 21
percentage time <54 mg/dL during Week 26 (median) ([1]; baseline A1c >8.5%, CGM, p=0.09): 2.6%
change in total cholesterol ([1]; over the study): 7.3 mg/dL
"life threatening" hypoglycemia events ([1]; whole study): No “life threatening” events were recorded
Time in Range (70-180 mg/dL), increase [2]: *No Change in Lispro Group
Time in Target (70-140 mg/dL), increase [2]: *No Change in Lispro Group
ending HbA1c [3]: 7.08
